Assay: Phase 1 study: safety and tolerability
Format: in vivo
Experimental: The maximum tolerated dose (MTD) of DZD1516 was defined based on safety data and the Bayesian optimal interval (BOIN) design (Additional file 1). The definition of DLT is provided in Additional file 1.
The AE grading was assessed according to the NCI-Common Terminology Criteria for Adverse Events (CTCAE) (version 5.0) and was monitored until 28 days after the last dose.
Eligible patients received single oral dosing of DZD1516 on Cycle 0 Day 1 (C0D1), followed by a 7-day washout. Twice daily oral dosing (bid) of DZD1516 was commenced from C1D1 in a continuous 21-day cycle until disease progression, unacceptable toxicity, or withdrawal of consent. All doses were taken under fed conditions (within 30 minutes after a meal).
Planned dosing consisted of 25, 50, 100, 200, 300, and 400 mg. Each dose escalation cohort will comprise a minimum of three and a maximum of six evaluable patients (except only one patient in the starting dose cohort). The maximum tolerated dose of DZD1516 was defined according to safety data and the Bayesian optimal interval (BOIN) design. Dose escalation/de-escalation rule with target toxicity rate for the MTD is 0.30 with interval of (0.20, 0.33).
DLTs were any adverse event (AE) not clearly attributable to the patient’s disease, including ≥ grade 4 hematological toxicities present for ≥ 4 days, grade 3 thrombocytopenia with bleeding, or grade 4 thrombocytopenia lasting for > 5 days, ≥ grade 3 non-hematological toxicities that is dose-limiting in the judgment of the investigators. Any other toxicity that is greater than that at baseline, is clinically significant or unacceptable, and is judged to be a DLT by the SRC. Exceptions included alopecia of any grade and isolated grade 3 laboratory change without clinical sequelae or clinical significance.
Safety evaluations were conducted at screening, on Day 1, 8, and 15 of Cycle 1, on Day 1 of each subsequent treatment cycle, at the end-of-treatment visit, and clinically indicated. Safety assessments included clinical laboratory measurements (hematology, chemistry, coagulation, and urinalysis), electrocardiogram (ECG), Echocardiogram/MUGA scan, ECOG performance status, vital signs, and physical examinations.

Compound: COc1cc(O[C@H]2CCN(C)CC2(F)F)c2c(Nc3ccc(Oc4ccn5ncnc5c4)c(C)c3)ncnc2c1 [DZD1516]
- Headache, ≥ Grade 3 (200 mg (N = 5)): 0 (0.0) n (%)
- Hemoglobin decreased, Any Grade (200 mg (N = 5)): 3 (60.0) n (%)
- Hemoglobin decreased, ≥ Grade 3 (200 mg (N = 5)): 0 (0.0) n (%)
- Investigations, Any Grade (200 mg (N = 5)): 4 (80.0) n (%)
- Investigations, ≥ Grade 3 (200 mg (N = 5)): 1 (20.0) n (%)
- Lipase increased, Any Grade (200 mg (N = 5)): 1 (20.0) n (%)
- Lipase increased, ≥ Grade 3 (200 mg (N = 5)): 0 (0.0) n (%)
- Malaise, Any Grade (200 mg (N = 5)): 1 (20.0) n (%)
- Malaise, ≥ Grade 3 (200 mg (N = 5)): 0 (0.0) n (%)
- Metabolism and nutrition disorders, Any Grade (200 mg (N = 5)): 3 (60.0) n (%)
- Metabolism and nutrition disorders, ≥ Grade 3 (200 mg (N = 5)): 0 (0.0) n (%)
- Musculoskeletal and connective tissue disorders, Any Grade (200 mg (N = 5)): 0 (0.0) n (%)
- Musculoskeletal and connective tissue disorders, ≥ Grade 3 (200 mg (N = 5)): 0 (0.0) n (%)
- Nausea, Any Grade (200 mg (N = 5)): 1 (20.0) n (%)
- Nausea, ≥ Grade 3 (200 mg (N = 5)): 0 (0.0) n (%)
- Nervous system disorders, Any Grade (200 mg (N = 5)): 2 (40.0) n (%)
- Nervous system disorders, ≥ Grade 3 (200 mg (N = 5)): 0 (0.0) n (%)
- Participants with any TEAE, Any Grade (200 mg (N = 5)): 5 (100.0) n (%)
- Participants with any TEAE, ≥ Grade 3 (200 mg (N = 5)): 1 (20.0) n (%)
- Platelet count decreased, Any Grade (200 mg (N = 5)): 1 (20.0) n (%)
- Platelet count decreased, ≥ Grade 3 (200 mg (N = 5)): 0 (0.0) n (%)
- Proteinuria, Any Grade (200 mg (N = 5)): 2 (40.0) n (%)
- Proteinuria, ≥ Grade 3 (200 mg (N = 5)): 0 (0.0) n (%)
- Renal and urinary disorders, Any Grade (200 mg (N = 5)): 2 (40.0) n (%)
- Renal and urinary disorders, ≥ Grade 3 (200 mg (N = 5)): 0 (0.0) n (%)
- Subjects with any TEAE (200 mg (N = 5)): 5 (100.0) n (%)
- Subjects with any drug-related TEAE (200 mg (N = 5)): 5 (100.0) n (%)
- Vomiting, Any Grade (200 mg (N = 5)): 3 (60.0) n (%)
- Vomiting, ≥ Grade 3 (200 mg (N = 5)): 0 (0.0) n (%)
- White blood cell count decreased, Any Grade (200 mg (N = 5)): 0 (0.0) n (%)
- White blood cell count decreased, ≥ Grade 3 (200 mg (N = 5)): 0 (0.0) n (%)
- Alanine aminotransferase increased, Any Grade (250 mg (N = 5)): 1 (20.0) n (%)
- Alanine aminotransferase increased, ≥ Grade 3 (250 mg (N = 5)): 0 (0.0) n (%)
- Anemia, Any Grade (250 mg (N = 5)): 1 (20.0) n (%)
- Anemia, ≥ Grade 3 (250 mg (N = 5)): 0 (0.0) n (%)
- Any TEAE: Grade 3 (250 mg (N = 5)): 1 (20.0) n (%)
- Any TEAE: Leading to death (250 mg (N = 5)): 0 (0.0) n (%)
- Any TEAE: Leading to dose reduction (250 mg (N = 5)): 0 (0.0) n (%)
- Any TEAE: Leading to treatment discontinuation (250 mg (N = 5)): 0 (0.0) n (%)
- Any TEAE: Leading to treatment interruption (250 mg (N = 5)): 1 (20.0) n (%)
- Any TEAE: SAE (250 mg (N = 5)): 1 (20.0) n (%)
- Aspartate aminotransferase increased, Any Grade (250 mg (N = 5)): 2 (40.0) n (%)
- Aspartate aminotransferase increased, ≥ Grade 3 (250 mg (N = 5)): 0 (0.0) n (%)
- Blood and lymphatic system disorders, Any Grade (250 mg (N = 5)): 1 (20.0) n (%)
- Blood and lymphatic system disorders, ≥ Grade 3 (250 mg (N = 5)): 0 (0.0) n (%)
- Blood bilirubin increased, Any Grade (250 mg (N = 5)): 1 (20.0) n (%)
- Blood bilirubin increased, ≥ Grade 3 (250 mg (N = 5)): 0 (0.0) n (%)
- Cardiac disorders, Any Grade (250 mg (N = 5)): 2 (40.0) n (%)
- Cardiac disorders, ≥ Grade 3 (250 mg (N = 5)): 0 (0.0) n (%)
- Constipation, Any Grade (250 mg (N = 5)): 0 (0.0) n (%)
- Constipation, ≥ Grade 3 (250 mg (N = 5)): 0 (0.0) n (%)
- Decreased appetite, Any Grade (250 mg (N = 5)): 0 (0.0) n (%)
- Decreased appetite, ≥ Grade 3 (250 mg (N = 5)): 0 (0.0) n (%)
- Dizziness, Any Grade (250 mg (N = 5)): 1 (20.0) n (%)
- Dizziness, ≥ Grade 3 (250 mg (N = 5)): 0 (0.0) n (%)
- Drug-related TEAE: Grade 3 (250 mg (N = 5)): 0 (0.0) n (%)
- Drug-related TEAE: Leading to death (250 mg (N = 5)): 0 (0.0) n (%)
- Drug-related TEAE: Leading to dose reduction (250 mg (N = 5)): 0 (0.0) n (%)
- Drug-related TEAE: Leading to treatment discontinuation (250 mg (N = 5)): 0 (0.0) n (%)
- Drug-related TEAE: Leading to treatment interruption (250 mg (N = 5)): 0 (0.0) n (%)
- Drug-related TEAE: SAE (250 mg (N = 5)): 0 (0.0) n (%)
- Fatigue, Any Grade (250 mg (N = 5)): 1 (20.0) n (%)
- Fatigue, ≥ Grade 3 (250 mg (N = 5)): 0 (0.0) n (%)
- Gastrointestinal disorders, Any Grade (250 mg (N = 5)): 1 (20.0) n (%)
- Gastrointestinal disorders, ≥ Grade 3 (250 mg (N = 5)): 1 (20.0) n (%)
- General disorders and administration site conditions, Any Grade (250 mg (N = 5)): 2 (40.0) n (%)
- General disorders and administration site conditions, ≥ Grade 3 (250 mg (N = 5)): 0 (0.0) n (%)
- Headache, Any Grade (250 mg (N = 5)): 2 (40.0) n (%)
- Headache, ≥ Grade 3 (250 mg (N = 5)): 0 (0.0) n (%)
- Hemoglobin decreased, Any Grade (250 mg (N = 5)): 2 (40.0) n (%)
- Hemoglobin decreased, ≥ Grade 3 (250 mg (N = 5)): 0 (0.0) n (%)
- Investigations, Any Grade (250 mg (N = 5)): 2 (40.0) n (%)
- Investigations, ≥ Grade 3 (250 mg (N = 5)): 0 (0.0) n (%)
- Lipase increased, Any Grade (250 mg (N = 5)): 0 (0.0) n (%)
- Lipase increased, ≥ Grade 3 (250 mg (N = 5)): 0 (0.0) n (%)
- Malaise, Any Grade (250 mg (N = 5)): 1 (20.0) n (%)
- Malaise, ≥ Grade 3 (250 mg (N = 5)): 0 (0.0) n (%)
- Metabolism and nutrition disorders, Any Grade (250 mg (N = 5)): 1 (20.0) n (%)
- Metabolism and nutrition disorders, ≥ Grade 3 (250 mg (N = 5)): 0 (0.0) n (%)
- Musculoskeletal and connective tissue disorders, Any Grade (250 mg (N = 5)): 3 (60.0) n (%)
- Musculoskeletal and connective tissue disorders, ≥ Grade 3 (250 mg (N = 5)): 1 (20.0) n (%)
- Nausea, Any Grade (250 mg (N = 5)): 1 (20.0) n (%)
- Nausea, ≥ Grade 3 (250 mg (N = 5)): 0 (0.0) n (%)
- Nervous system disorders, Any Grade (250 mg (N = 5)): 4 (80.0) n (%)
- Nervous system disorders, ≥ Grade 3 (250 mg (N = 5)): 0 (0.0) n (%)
- Participants with any TEAE, Any Grade (250 mg (N = 5)): 5 (100.0) n (%)
- Participants with any TEAE, ≥ Grade 3 (250 mg (N = 5)): 1 (20.0) n (%)
- Platelet count decreased, Any Grade (250 mg (N = 5)): 0 (0.0) n (%)
- Platelet count decreased, ≥ Grade 3 (250 mg (N = 5)): 0 (0.0) n (%)
- Proteinuria, Any Grade (250 mg (N = 5)): 0 (0.0) n (%)
- Proteinuria, ≥ Grade 3 (250 mg (N = 5)): 0 (0.0) n (%)
- Renal and urinary disorders, Any Grade (250 mg (N = 5)): 0 (0.0) n (%)
- Renal and urinary disorders, ≥ Grade 3 (250 mg (N = 5)): 0 (0.0) n (%)
- Subjects with any TEAE (250 mg (N = 5)): 5 (100.0) n (%)
- Subjects with any drug-related TEAE (250 mg (N = 5)): 4 (80.0) n (%)
- Vomiting, Any Grade (250 mg (N = 5)): 0 (0.0) n (%)
- Vomiting, ≥ Grade 3 (250 mg (N = 5)): 0 (0.0) n (%)
- White blood cell count decreased, Any Grade (250 mg (N = 5)): 2 (40.0) n (%)
- White blood cell count decreased, ≥ Grade 3 (250 mg (N = 5)): 0 (0.0) n (%)
- dose-limiting toxicities (DLTs) (250 mg cohort): none of the patients in the 250 mg cohort experiencing DLTs
- Alanine aminotransferase increased, Any Grade (300 mg (N = 4)): 1 (25.0) n (%)
- Alanine aminotransferase increased, ≥ Grade 3 (300 mg (N = 4)): 0 (0.0) n (%)
- Anemia, Any Grade (300 mg (N = 4)): 0 (0.0) n (%)
- Anemia, ≥ Grade 3 (300 mg (N = 4)): 0 (0.0) n (%)
- Any TEAE: Grade 3 (300 mg (N = 4)): 3 (75.0) n (%)
- Any TEAE: Leading to death (300 mg (N = 4)): 0 (0.0) n (%)
- Any TEAE: Leading to dose reduction (300 mg (N = 4)): 3 (75.0) n (%)
- Any TEAE: Leading to treatment discontinuation (300 mg (N = 4)): 1 (25.0) n (%)
- Any TEAE: Leading to treatment interruption (300 mg (N = 4)): 3 (75.0) n (%)
- Any TEAE: SAE (300 mg (N = 4)): 0 (0.0) n (%)
- Aspartate aminotransferase increased, Any Grade (300 mg (N = 4)): 1 (25.0) n (%)
- Aspartate aminotransferase increased, ≥ Grade 3 (300 mg (N = 4)): 0 (0.0) n (%)
- Blood and lymphatic system disorders, Any Grade (300 mg (N = 4)): 0 (0.0) n (%)
- Blood and lymphatic system disorders, ≥ Grade 3 (300 mg (N = 4)): 0 (0.0) n (%)
- Blood bilirubin increased, Any Grade (300 mg (N = 4)): 0 (0.0) n (%)
- Blood bilirubin increased, ≥ Grade 3 (300 mg (N = 4)): 0 (0.0) n (%)
- Cardiac disorders, Any Grade (300 mg (N = 4)): 0 (0.0) n (%)
- Cardiac disorders, ≥ Grade 3 (300 mg (N = 4)): 0 (0.0) n (%)
- Constipation, Any Grade (300 mg (N = 4)): 1 (25.0) n (%)
- Constipation, ≥ Grade 3 (300 mg (N = 4)): 0 (0.0) n (%)
- Decreased appetite, Any Grade (300 mg (N = 4)): 3 (75.0) n (%)
